Results on three compounds are retold here after ChEMBL document CHEMBL1136469, “Non-peptide alpha(v)beta(3) antagonists: identification of potent, chain-shortened RGD mimetics that incorporate a central pyrrolidinone constraint” (Bioorg Med Chem Lett, 2003).

Series [1] in a line: in vivo. Particulars: dog, plasma.
Description: Plasma clearance was measured in dog
A short description of another series: physchem. Particulars: octanol/water.
The nature of series [2]: in vivo. Conditions: dog.
Description: Half-life was measured in dog
A short description of series [3]: in vivo. Particulars: dog, po.
Description: Oral bioavailability in dog
A further series deals with Integrin alpha-V/beta-3 (Homo sapiens, UniProt P05106+P06756).
Integrin alpha-V/beta-3, sequence (P05106 27-788 limits assumed): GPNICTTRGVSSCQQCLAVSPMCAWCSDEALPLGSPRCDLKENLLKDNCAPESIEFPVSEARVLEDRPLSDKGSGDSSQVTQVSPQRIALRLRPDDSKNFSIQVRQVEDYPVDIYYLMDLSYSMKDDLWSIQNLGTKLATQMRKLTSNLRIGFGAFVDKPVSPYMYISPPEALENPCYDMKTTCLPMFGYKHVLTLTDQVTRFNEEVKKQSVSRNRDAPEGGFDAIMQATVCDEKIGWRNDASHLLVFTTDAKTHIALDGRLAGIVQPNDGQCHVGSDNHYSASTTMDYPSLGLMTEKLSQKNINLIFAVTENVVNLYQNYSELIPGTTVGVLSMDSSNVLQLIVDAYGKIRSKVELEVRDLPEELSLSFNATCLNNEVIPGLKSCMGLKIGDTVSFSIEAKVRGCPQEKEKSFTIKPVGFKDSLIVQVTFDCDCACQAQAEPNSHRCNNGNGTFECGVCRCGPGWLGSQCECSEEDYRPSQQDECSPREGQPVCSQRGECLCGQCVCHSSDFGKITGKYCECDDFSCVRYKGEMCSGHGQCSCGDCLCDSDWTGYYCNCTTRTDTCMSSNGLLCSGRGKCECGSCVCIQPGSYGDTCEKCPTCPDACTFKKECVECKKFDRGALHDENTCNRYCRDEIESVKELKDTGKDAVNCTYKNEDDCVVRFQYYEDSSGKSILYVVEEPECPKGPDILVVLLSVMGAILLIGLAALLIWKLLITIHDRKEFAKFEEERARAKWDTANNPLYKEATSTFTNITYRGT
Integrin alpha-V/beta-3, sequence (P06756 31-889 limits assumed): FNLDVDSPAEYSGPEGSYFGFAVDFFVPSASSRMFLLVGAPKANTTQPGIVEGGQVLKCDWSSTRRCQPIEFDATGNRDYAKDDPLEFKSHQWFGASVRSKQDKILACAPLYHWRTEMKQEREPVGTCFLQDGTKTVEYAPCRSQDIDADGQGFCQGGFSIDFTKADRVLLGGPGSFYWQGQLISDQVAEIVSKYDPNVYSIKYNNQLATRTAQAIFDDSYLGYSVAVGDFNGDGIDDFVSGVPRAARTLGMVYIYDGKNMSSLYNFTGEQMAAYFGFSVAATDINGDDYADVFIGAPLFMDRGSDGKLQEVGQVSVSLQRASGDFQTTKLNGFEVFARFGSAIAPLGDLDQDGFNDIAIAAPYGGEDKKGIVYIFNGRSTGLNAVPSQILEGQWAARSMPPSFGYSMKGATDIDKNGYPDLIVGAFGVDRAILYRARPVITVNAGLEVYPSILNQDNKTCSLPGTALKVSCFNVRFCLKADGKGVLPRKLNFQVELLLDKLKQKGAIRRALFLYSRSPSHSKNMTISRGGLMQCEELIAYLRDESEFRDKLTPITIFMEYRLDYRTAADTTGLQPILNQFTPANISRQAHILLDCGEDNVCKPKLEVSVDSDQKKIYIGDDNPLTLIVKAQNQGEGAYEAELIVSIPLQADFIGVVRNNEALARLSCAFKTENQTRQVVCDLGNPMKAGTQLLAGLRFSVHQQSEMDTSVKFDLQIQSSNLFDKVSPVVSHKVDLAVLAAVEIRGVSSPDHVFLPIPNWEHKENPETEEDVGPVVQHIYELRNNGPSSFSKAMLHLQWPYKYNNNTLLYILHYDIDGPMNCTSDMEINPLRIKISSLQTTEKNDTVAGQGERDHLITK
Integrin alpha-V/beta-3, sequence (P06756 891-1048 limits assumed): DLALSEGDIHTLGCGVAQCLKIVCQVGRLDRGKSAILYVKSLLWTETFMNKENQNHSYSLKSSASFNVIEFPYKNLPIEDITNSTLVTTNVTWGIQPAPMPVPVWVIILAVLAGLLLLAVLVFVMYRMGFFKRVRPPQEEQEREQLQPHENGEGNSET

Description for Integrin alpha-V/beta-3: Displacement of [125I]-labeled nonpeptide from purified recombinant human alphaV-beta3 integrin
Description for physchem: Partition coefficient (logP)

Usually clearance stands for a measure of how efficiently the substance is removed, as volume per time. A low value points to inefficient removal. The term logP denotes the decadic logarithm of the partition coefficient of the neutral form, usually between octanol and water. A lower logP goes with lower lipophilicity. As a reminder, the half-life is how long it takes for the measured level to halve. The term bioavailability denotes the share of a dose that reaches the circulation, judged against a reference dose that is usually intravenous. Broadly, the IC50 is the concentration at which inhibition is half-maximal. Lower therefore signals greater potency. In the series “in vivo [1]”, `O=C(O)C[C@@H](c1ccc2c(c1)OCC2)N1CC[C@@H](CCCc2ccc3c(n2)NCCC3)C1=O` showed a clearance of 2.1 mL/min/kg. Moreover, the logP in the series “physchem” amounted to 0.88. In “in vivo [2]”, this compound had a half-life of 8 h. Besides, in “in vivo [3]”, the bioavailability came out at 52%. On Integrin alpha-V/beta-3, this compound came in with an IC50 of 0.39 nM.

In the case of `O=C(O)C[C@H](NC(=O)CCCCc1ccc2c(n1)NCCC2)c1cnc2ccccc2c1`, the logP in the series “physchem” was found to be 0.77.

In the case of `O=C(O)C[C@@H](c1ccc2c(c1)OCC2)N1CC[C@H](CCCc2ccc3c(n2)NCCC3)C1=O`, the clearance in the series “in vivo [1]” came to 22.9 mL/min/kg. The same compound showed a logP in “physchem” of -0.12. In the series “in vivo [2]”, this compound showed a half-life of 1.5 h. For the same compound, the bioavailability in “in vivo [3]” was 11.5%. Further, at Integrin alpha-V/beta-3, the midpoint of inhibition, the IC50, lay at 0.22 nM.
